≈ marks a conversion by molar mass, not a printed value.
Columns and labels:
[1] = system: PBMC (peripheral blood mononuclear cell); experiment: Mammalian cell cytotoxicity, PBMC; format: cell-based, human
Experimental: (§1) HK-2 (500 cells per well) (ATCC CRL-2190), HLF (500 cells per well) (Cell Applications 506K-05a), WI-38 (500 cells per well) (ATCC CCL-75) or PBMC (5,000 cells per well) (TPCS PB010C) cells were seeded in white opaque 384-well plates. After 24 h, DMSO or compounds were added in 3-fold dilutions and cells incubated for 72 h. For PBMC, CellTiter-Glo reagent was added in equal volume and incubated for 30 min, after which luminescence was read. For other cell types, CyQUANT detection reagent was added in equal volume and cells incubated for 1 h, after which fluorescence was read with standard green filter set […]. Cell toxicity was evaluated by Pharmaron.

ESKAPE pathogens = experiment: Growth inhibition of P. aeruginosa PA01, ATTC 27853 and ESKAPE pathogens (MIC panel); format: cell-based; settings: P. aeruginosa PA01 and ATTC 27853 and all 5 ESKAPE pathogens tested
Experimental: (§2) Overnight cultures were diluted 1:150 in LB broth and added to a 96-well plate. Antibiotics were serially diluted 1:2 and added to columns of the 96-well plate and grown at 37 °C with continuous shaking. Cell growth was measured using optical density at 600 nm (OD600). MIC assays were performed in either BioTek Synergy HT or Tecan InfiniteM200 Pro microplate readers.
(§3) Bacterial colonies (4–8) of strains of interest were vortexed in saline and adjusted to an OD600 of 0.2. Strains were diluted 1:200 into CAMHB media in 96-well plates. Antibiotics were serially diluted 1:3 in DMSO, and 1 μl of each dilution was added to bacteria. The plates were incubated for 18–20 h at 37 °C before observation.

[2] = system: HK-2 (human kidney epithelial); experiment: Mammalian cell cytotoxicity, HK-2; format: cell-based; settings: 72 h, CyQUANT, read-out: IC50 Fluorofolin
Experimental: as §1

[3] = system: P. aeruginosa PA14 nfxB mutants; experiment: MIC against fluorofolin-resistant PA14 nfxB mutants in liquid culture; format: cell-based; settings: Pseudomonas aeruginosa
Experimental: as §2
Resistant mutants were maintained as a frozen stock.

[4] = system: Enterococcus faecalis ATCC 51575; experiment: MIC (WuXi, Mueller–Hinton broth) against E. faecalis; format: cell-based; settings: ATCC51575
Experimental: as §3

[5] = system: Acinetobacter baumannii BAA-125; experiment: MIC against A. baumannii BAA-125 in LB broth; format: cell-based; settings: BAA125, 16 h, 37 °C, OD600
Experimental: as §2

[6] = system: P. aeruginosa PA14 mexA transposon mutant; experiment: microbe, parasite or virus in culture; format: cell-based; settings: Pseudomonas aeruginosa
Experimental: as §2
(§4) P. aeruginosa PA14 transposon mutants were generated by the Ausubel Lab (https://pa14.mgh.harvard.edu/cgi-bin/pa14/home.cgi)[67]. The MICs of fluorofolin and TMP against strains with disrupted MexA, MexB and OprM were determined as above and compared to the parental strain. As transposon mutants in MexB were represented twice in this collection, the MIC was confirmed across both mutant strains.

[7] = system: P. aeruginosa PA14 mexB transposon mutant; experiment: microbe, parasite or virus in culture; format: cell-based; settings: Pseudomonas aeruginosa
Experimental: as §2, §4

[8] = system: P. aeruginosa PA14 oprM transposon mutant; experiment: microbe, parasite or virus in culture; format: cell-based; settings: Pseudomonas aeruginosa
Experimental: as §2, §4

E. coli DHFR (FolA) = biological target: T1, E. coli DHFR (FolA) (Escherichia coli, UniProt P0ABQ4); experiment: In vitro DHFR activity, purified E. coli FolA; format: biochemical; settings: for fractional initial velocity: E. coli FolA
T1 construct: purchased Genscript
T1 sequence (P0ABQ4 whole entry): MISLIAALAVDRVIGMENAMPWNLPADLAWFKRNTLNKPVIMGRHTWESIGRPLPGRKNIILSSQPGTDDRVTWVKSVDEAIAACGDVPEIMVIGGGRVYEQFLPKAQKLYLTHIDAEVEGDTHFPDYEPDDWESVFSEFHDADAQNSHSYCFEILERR
Experimental: As described previously, purified E. coli dihydrofolate reductase (FolA) was purified by Genscript. Enzyme activity was measured on a QuantaMaster 40 spectrophotometer (Photon Technology) using the DHFR reductase assay kit with slight modifications. E. coli FolA was diluted 1:1,000 into 1× assay buffer. Of this mixture, 100 μl with or without compound was added to a BRAND UV cuvette (Sigma-Aldrich BR759200) and sample transmitted light intensity at 340 nm was measured for 100 s at 1 kHz sampling. Readings were averaged for every 1 Hz and the activity of each sample was calculated from the slope (β) of a linear regression of the log-transformed intensity measurements on MATLAB R2022B. To account for enzyme stability, measurements were normalized to a standard condition (60 μM NADPH and 100 μM DHF) measured immediately before the sample of interest. The relative activity was calculated as (βsample − βnoEnzyme)/(βstandard − βnoEnzyme).

sheep red blood cells = experiment: Haemolysis; format: cell-based; settings: biologically relevant concentrations
Experimental: (§5) Samples were treated at 37 °C with shaking for 1 h and then centrifuged. Supernatants were collected and absorbances were measured at 405 nm in a Tecan InfiniteM200 Pro microplate reader.

Haemolysis = format: cell-based, sheep; settings: sheep, defibrinated sheep red blood cells, 1 h, vs Triton X-100 100% lysis
Experimental: as §5

[9] = system: HLF (human lung fibroblast); experiment: Mammalian cell cytotoxicity, HLF; format: cell-based; settings: 72 h, CyQUANT, read-out: IC50 Fluorofolin
Experimental: as §1

Nc1nc(N)c2c(ccc3c2ccn3Cc2ccnc(F)c2)n1 [fluorofolin]
IC50 ([1]; Homo sapiens, PBMC, 72 h, CellTiter-Glo, read-out: IC50 Fluorofolin): 39.8 µg/mL (≈ 129 µM)
increase in IC50 compared with IRS-16 ([1]; PBMCs): 9.6 fold
concentration inhibiting growth (ESKAPE pathogens): less than 50 µg ml^−1
IC50 [2]: 51.7 µg/mL (≈ 168 µM)
MIC [3]: > 100 µg/mL
MIC [4]: 0.01 µg/mL (≈ 0.0324 µM)
MIC [5]: 31.2 µg/mL
MIC [6]: 1.5 µg/mL
MIC [7]: 1.5 µg/mL
MIC [8]: 1.5 µg/mL
IC50 (E. coli DHFR (FolA)): 2.5 ± 1.1 nM
fractional initial velocity (E. coli DHFR (FolA); Fluorofolin 9.91e-5 uM): 1.007
fractional initial velocity (E. coli DHFR (FolA); Fluorofolin 0.000507393 uM): 1.009
fractional initial velocity (E. coli DHFR (FolA); Fluorofolin 0.000792664 uM): 0.7937
fractional initial velocity (E. coli DHFR (FolA); Fluorofolin 0.00101479 uM): 0.7819
fractional initial velocity (E. coli DHFR (FolA); Fluorofolin 0.00152192 uM): 0.9341
fractional initial velocity (E. coli DHFR (FolA); Fluorofolin 0.00158533 uM): 0.5604
fractional initial velocity (E. coli DHFR (FolA); Fluorofolin 0.00202957 uM): 0.702
fractional initial velocity (E. coli DHFR (FolA); Fluorofolin 0.00405914 uM): 0.5491
fractional initial velocity (E. coli DHFR (FolA); Fluorofolin 0.00608766 uM): 0.1317
fractional initial velocity (E. coli DHFR (FolA); Fluorofolin 0.00634131 uM): 0.5169
fractional initial velocity (E. coli DHFR (FolA); Fluorofolin 0.00811828 uM): 0.197
fractional initial velocity (E. coli DHFR (FolA); Fluorofolin 0.0121753 uM): 0.07555
fractional initial velocity (E. coli DHFR (FolA); Fluorofolin 0.0126826 uM): 0.0002002
fractional initial velocity (E. coli DHFR (FolA); Fluorofolin 0.0162366 uM): 0.3634
fractional initial velocity (E. coli DHFR (FolA); Fluorofolin 0.0253653 uM): 0.0004461
fractional initial velocity (E. coli DHFR (FolA); Fluorofolin 0.0324731 uM): -0.0327
permeabilization of red blood cell membranes (sheep red blood cells): did not cause significant permeabilization
hemolysis at 1 h, 0.78125 ug/mL (Haemolysis; 0.78125 ug/mL): 0.966%
hemolysis at 1 h, 1.5625 ug/mL (Haemolysis; 1.5625 ug/mL): 0.655%
hemolysis at 1 h, 3.125 ug/mL (Haemolysis; 3.125 ug/mL): -0.334%
hemolysis at 1 h, 6.25 ug/mL (Haemolysis; 6.25 ug/mL): 0.353%
hemolysis at 1 h, 12.5 ug/mL (Haemolysis; 12.5 ug/mL): -0.799%
hemolysis at 1 h, 25 ug/mL (Haemolysis; 25 ug/mL): -0.239%
hemolysis at 1 h, 50 ug/mL (Haemolysis; 50 ug/mL): 13.7%
IC50 [9]: 17.2 µg/mL (≈ 55.9 µM)

— paper PMC11087268, “A folate inhibitor exploits metabolic differences in Pseudomonas aeruginosa for narrow-spectrum targeting” (Nature Microbiology, 2024)
